Assay results published in patent US20230064034A1, “LIGHT STABLE LIQUID DISINFECTANT COMPOSITIONS” (Onyx Lotus, LLC, priority 2021, published 2023).

Test system: E. coli
Test: Durability test: wiped aluminum coupons, surface tested for E. coli by ASTM E-2315
Format: cell-based, Escherichia coli
Details: aluminum coupon wiped 40 times
Protocol: The durability test was designed to identify the number of times a surface can be wiped under pressure and prevent growth of pathogens on the surface after the light stable disinfectant was applied. The liquid composition contains 100 mL distilled water, 1.25 g EDTA, 0.01 g silver nitrate, and 0.5 g PVP K-30 having a 100 ppm concentration of silver. Five test solutions were evaluated: 10 mL liquid disinfectant composition, sodium hypochlorite, […] (peracetic acid), and Lysol. This 100 ppm solution of silver solution was loaded into a sprayer and sprayed onto 1×1'' sterilized aluminum or stainless-steel coupons. The aluminum coupons were wiped with a sterilized non-scratch scouring sponge or a soft cloth with a 1 kg weight on top of the non-scratch scouring sponge or a soft cloth then autoclaved. After the aluminum coupons had cooled to room temperature, the test solutions were sprayed onto the coupons. […]

SMILES: OCl [Sodium hypochlorite]
- reduction: 0%
